Key:
Test in all cases: normalised viability (% of control), CellTiter-Blue; higher = more viable cells (about 100 = DMSO control)
MFM-223 [1] = conditions: 100 nM; incubation time: 72 h
Procedure: (§1)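 DSRT, CellTiter-Blue viability, 72 h incubation. Signal is normalised to DMSO and benzethonium chloride controls. Value is the normalised response at dose 3.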

BT-549 [2] = conditions: 100 nM; incubation time: 72 h
Procedure: as §1

MDA-MB-231 [3] = conditions: 100 nM; incubation time: 72 h
Procedure: as §1

HCC1143 [4] = conditions: 100 nM; incubation time: 72 h
Procedure: as §1

HDQ-P1 [5] = conditions: 10 nM; incubation time: 72 h
Procedure: as §1

HCC1599 [6] = conditions: 100 nM; incubation time: 72 h
Procedure: as §1

CAL-148 [7] = conditions: 10 nM; incubation time: 72 h
Procedure: as §1

DU-4475 [8] = conditions: 10 nM; incubation time: 72 h
Procedure: as §1

Hs578T [9] = conditions: 100 nM; incubation time: 72 h
Procedure: as §1

CAL-85-1 [10] = conditions: 10 nM; incubation time: 72 h
Procedure: as §1

CAL-120 [11] = conditions: 100 nM; incubation time: 72 h
Procedure: as §1

MDA-MB-468 [12] = conditions: 100 nM; incubation time: 72 h
Procedure: as §1

MDA-MB-453 [13] = conditions: 10 nM; incubation time: 72 h
Procedure: as §1

HCC1937 [14] = conditions: 100 nM; incubation time: 72 h
Procedure: as §1

SK-BR-3 [15] = conditions: 100 nM; incubation time: 72 h
Procedure: as §1

BT-474 [16] = conditions: 100 nM; incubation time: 72 h
Procedure: as §1

MDA-MB-436 [17] = conditions: 100 nM; incubation time: 72 h
Procedure: as §1

CAL-51 [18] = conditions: 10 nM; incubation time: 72 h
Procedure: as §1

MFM-223 [19] = conditions: incubation time: 72 h
Method in brief: (§2)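 Vehicle (100) and a positive kill control (0) anchored the normalisation of each plate, and Z'-factor was used for quality control. Breast cancer cell lines in 20 µl suspension were incubated 72 h over compound in 5 µl medium in 384-well plates, followed by CellTiter-Blue at 560/590 nm. The value is normalised viability at a single listed concentration of the series.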

BT-549 [20] = conditions: incubation time: 72 h
Method in brief: as §2

MDA-MB-231 [21] = conditions: incubation time: 72 h
Method in brief: as §2

HCC1143 [22] = conditions: incubation time: 72 h
Method in brief: as §2

HDQ-P1 [23] = conditions: incubation time: 72 h
Method in brief: as §2

HCC1599 [24] = conditions: incubation time: 72 h
Method in brief: as §2

CAL-148 [25] = conditions: incubation time: 72 h
Method in brief: as §2

DU-4475 [26] = conditions: incubation time: 72 h
Method in brief: as §2

Hs578T [27] = conditions: incubation time: 72 h
Method in brief: as §2

CAL-85-1 [28] = conditions: incubation time: 72 h
Method in brief: as §2

CAL-120 [29] = conditions: incubation time: 72 h
Method in brief: as §2

MDA-MB-468 [30] = conditions: incubation time: 72 h
Method in brief: as §2

MDA-MB-453 [31] = conditions: incubation time: 72 h
Method in brief: as §2

HCC1937 [32] = conditions: incubation time: 72 h
Method in brief: as §2

SK-BR-3 [33] = conditions: incubation time: 72 h
Method in brief: as §2

BT-474 [34] = conditions: incubation time: 72 h
Method in brief: as §2

MDA-MB-436 [35] = conditions: incubation time: 72 h
Method in brief: as §2

CAL-51 [36] = conditions: incubation time: 72 h
Method in brief: as §2

COC(=O)C[C@](O)(CCCC(C)(C)O)C(=O)O[C@@H]1C(OC)=C[C@]23CCCN2CCc2cc4c(cc2[C@H]13)OCO4 [Omacetaxine mepesuccinate]
Conditions | normalised viability [%]
BT-474 [16] | 54.8
BT-549 [2] | 19.2
CAL-51 [18] | 92.8
CAL-85-1 [10] | 79.7
CAL-120 [11] | 15.1
CAL-148 [7] | 67.6
DU-4475 [8] | 25.1
HCC1143 [4] | 37.7
HCC1599 [6] | 29.4
HCC1937 [14] | 14.9
HDQ-P1 [5] | 73
Hs578T [9] | 6.8
MDA-MB-231 [3] | 22.1
MDA-MB-436 [17] | 21.4
MDA-MB-453 [13] | 90.2
MDA-MB-468 [12] | 17.7
MFM-223 [1] | 31
SK-BR-3 [15] | 18.3

normalised viability [%]
Conditions | 3 nM | 10 nM | 30 nM | 100 nM | 1000 nM | 10000 nM
BT-474 [34] | – | 118 | – | – | 23 | 13.3
BT-549 [20] | – | 87.2 | – | – | 7.63 | 4.5
CAL-51 [36] | 101 | – | 31.6 | 11.8 | – | –
CAL-85-1 [28] | 86.8 | – | 25.3 | 9.04 | – | –
CAL-120 [29] | – | 69.2 | – | – | 7.92 | 5.91
CAL-148 [25] | 96.3 | – | 26 | 14.8 | – | –
DU-4475 [26] | 81 | – | 2.2 | 4.43 | – | –
HCC1143 [22] | – | 87.2 | – | – | 14.2 | 11
HCC1599 [24] | – | 68.9 | – | – | 17 | 12.9
HCC1937 [32] | – | 55.9 | – | – | 13.9 | 14.3
HDQ-P1 [23] | 92.5 | – | 24.6 | 14.9 | – | –
Hs578T [27] | – | 111 | – | – | 1.46 | 1.1
MDA-MB-231 [21] | – | 87.9 | – | – | 6.79 | 3.89
MDA-MB-436 [35] | – | 88.5 | – | – | 19 | 11.7
MDA-MB-453 [31] | 109 | – | 44.5 | 21.4 | – | –
MDA-MB-468 [30] | – | 90.2 | – | – | 4.25 | 3.02
MFM-223 [19] | – | 88.3 | – | – | 8.87 | 4.39
SK-BR-3 [33] | – | 89.4 | – | – | 6.71 | 3.15
